Assay results taken from US20180244699A1, “1-HYDROXY-3H-2,1-BENZOXABOROLE DERIVATIVES AND THEIR USE AS MICROBIOCIDES” (Syngenta Participations AG, priority 2015, published 2018).

Tested on: Pythium ultimum
Experiment: Pythium ultimum / liquid culture (seedling damping off)
Type: cell-based
Details: Globisporangium ultimum, growth inhibition photometrically 2-3 days after application, compared to untreated control
Protocol: 15. Pythium ultimum/Liquid Culture (Seedling Damping Off) Mycelia fragments and oospores of a newly grown liquid culture of the fungus are directly mixed into nutrient broth (PDB potato dextrose broth). After placing a (DMSO) solution of test compound into a microtiter plate (96-well format), the nutrient broth containing the fungal mycelia/spore mixture is added. The test plates are incubated at 24° C. and the inhibition of growth is determined photometrically 2-3 days after application.

**Q.** `COc1c(C(=O)NCc2ccccn2)ccc2c1B(O)OC2` [Compound 7, 1-hydroxy-7-methoxy-N-(2-pyridylmethyl)-3H-2,1-benzoxaborole-6-carboxamide] was tested. Which inhibition of growth at 20 ppm did it give?
**A.** The inhibition of growth at 20 ppm was at least 80%.

**Q.** Which inhibition of growth at 20 ppm does the source give for `COc1c(C(=O)N(C)C)ccc2c1B(O)OC2` [Compound 11, 1-hydroxy-7-methoxy-N,N-dimethyl-3H-2,1-benzoxaborole-6-carboxamide] here?
**A.** Its inhibition of growth at 20 ppm is at least 80%.

**Q.** How did the inhibition of growth at 20 ppm turn out when `CN(C)C(=O)c1ccc2c(c1Cl)B(O)OC2` [Compound 13, 7-chloro-1-hydroxy-N,N-dimethyl-3H-2,1-benzoxaborole-6-carboxamide] was run?
**A.** Its inhibition of growth at 20 ppm is at least 80%.

**Q.** How did the inhibition of growth at 20 ppm turn out when `CCOC(=O)N1CCC(NC(=O)c2ccc3c(c2OC)B(O)OC3)CC1` [Compound 18, ethyl 4-[(1-hydroxy-7-methoxy-3H-2,1-benzoxaborole-6-carbonyl)amino]piperidine-1-carboxylate] was run?
**A.** Its inhibition of growth at 20 ppm is at least 80%.

**Q.** Which inhibition of growth at 20 ppm does the source give for `COc1c(C(=O)NC(=O)N(C)C)ccc2c1B(O)OC2` [Compound 21, N-(dimethylcarbamoyl)-1-hydroxy-7-methoxy-3H-2,1-benzoxaborole-6-carboxamide] here?
**A.** Its inhibition of growth at 20 ppm is at least 80%.

**Q.** With `COc1c(C(=O)Nc2cc(C)cc(C)n2)ccc2c1B(O)OC2` [Compound 22, N-(4,6-dimethyl-2-pyridyl)-1-hydroxy-7-methoxy-3H-2,1-benzoxaborole-6-carboxamide] as the molecule, how does the inhibition of growth at 20 ppm read?
**A.** The inhibition of growth at 20 ppm was at least 80%.

**Q.** Which inhibition of growth at 20 ppm does the source give for `COC(=O)C1CCN(C(=O)c2ccc3c(c2OC)B(O)OC3)CC1` [Compound 24, methyl 1-(1-hydroxy-7-methoxy-3H-2,1-benzoxaborole-6-carbonyl)piperidine-4-carboxylate] here?
**A.** The inhibition of growth at 20 ppm was at least 80%.

**Q.** For `COCCN(C)C(=O)c1ccc2c(c1OC)B(O)OC2` [Compound 27, 1-hydroxy-7-methoxy-N-(2-methoxyethyl)-N-methyl-3H-2,1-benzoxaborole-6-carboxamide], which inhibition of growth at 20 ppm is on record?
**A.** Its inhibition of growth at 20 ppm is at least 80%.

**Q.** Which inhibition of growth at 20 ppm does the source give for `COc1c(C(=O)N(C)c2nc(C)c(S(N)(=O)=O)s2)ccc2c1B(O)OC2` [Compound 28, 1-hydroxy-7-methoxy-N-methyl-N-(4-methyl-5-sulfamoyl-thiazol-2-yl)-3H-2,1-benzoxaborole-6-carboxamide] here?
**A.** Its inhibition of growth at 20 ppm is at least 80%.

**Q.** How did the inhibition of growth at 20 ppm turn out when `COc1c(C(=O)N(C)c2ccccn2)ccc2c1B(O)OC2` [Compound 30, 1-hydroxy-7-methoxy-N-methyl-N-(2-pyridyl)-3H-2,1-benzoxaborole-6-carboxamide] was run?
**A.** Its inhibition of growth at 20 ppm is at least 80%.

**Q.** How did the inhibition of growth at 20 ppm turn out when `COc1c(C(=O)NCC(C)C)ccc2c1B(O)OC2` [Compound 36, 1-hydroxy-N-isobutyl-7-methoxy-3H-2,1-benzoxaborole-6-carboxamide] was run?
**A.** The inhibition of growth at 20 ppm was at least 80%.

**Q.** How did the inhibition of growth at 20 ppm turn out when `CCOC(=O)C1(NC(=O)c2ccc3c(c2OC)B(O)OC3)CC1` [Compound 37, ethyl 1-[(1-hydroxy-7-methoxy-3H-2,1-benzoxaborole-6-carbonyl)amino]cyclopropanecarboxylate] was run?
**A.** The inhibition of growth at 20 ppm was at least 80%.

**Q.** Which inhibition of growth at 20 ppm does the source give for `COc1c(C(=O)Nc2c(C(C)C)ccnc2C(C)C)ccc2c1B(O)OC2` [Compound 38, N-(2,4-diisopropyl-3-pyridyl)-1-hydroxy-7-methoxy-3H-2,1-benzoxaborole-6-carboxamide] here?
**A.** Its inhibition of growth at 20 ppm is at least 80%.

**Q.** For `COc1c(C(=O)N(C)c2cc(Cl)cnc2Cl)ccc2c1B(O)OC2` [Compound 39, N-(2,5-dichloro-3-pyridyl)-1-hydroxy-7-methoxy-N-methyl-3H-2,1-benzoxaborole-6-carboxamide], which inhibition of growth at 20 ppm is on record?
**A.** Its inhibition of growth at 20 ppm is at least 80%.

**Q.** How did the inhibition of growth at 20 ppm turn out when `CCSc1nc(NC(=O)c2ccc3c(c2OC)B(O)OC3)nn1C` [Compound 40, N-(5-ethylsulfanyl-1-methyl-1,2,4-triazol-3-yl)-1-hydroxy-7-methoxy-3H-2,1-benzoxaborole-6-carboxamide] was run?
**A.** Its inhibition of growth at 20 ppm is at least 80%.

**Q.** `COc1c(C(=O)Nc2ccnc(C)c2)ccc2c1B(O)OC2` [Compound 42, 1-hydroxy-7-methoxy-N-(2-methyl-4-pyridyl)-3H-2,1-benzoxaborole-6-carboxamide] was tested. Which inhibition of growth at 20 ppm did it give?
**A.** The inhibition of growth at 20 ppm was at least 80%.

**Q.** How did the inhibition of growth at 20 ppm turn out when `COc1c(C(=O)Nc2nnc(C)[nH]2)ccc2c1B(O)OC2` [Compound 43, 1-hydroxy-7-methoxy-N-(5-methyl-4H-1,2,4-triazol-3-yl)-3H-2,1-benzoxaborole-6-carboxamide] was run?
**A.** The inhibition of growth at 20 ppm was at least 80%.

**Q.** `CCC(NC(=O)c1ccc2c(c1OC)B(O)OC2)C(=O)OC` (centres unmarked) [Compound 44, methyl 2-[(1-hydroxy-7-methoxy-3H-2,1-benzoxaborole-6-carbonyl)amino]butanoate] was tested. Which inhibition of growth at 20 ppm did it give?
**A.** The inhibition of growth at 20 ppm was at least 80%.

**Q.** How did the inhibition of growth at 20 ppm turn out when `COc1c(C(=O)NC(=S)N(C)Cc2cccnc2)ccc2c1B(O)OC2` [Compound 47, 1-hydroxy-7-methoxy-N-[methyl(3-pyridylmethyl)carbamothioyl]-3H-2,1-benzoxaborole-6-carboxamide] was run?
**A.** Its inhibition of growth at 20 ppm is at least 80%.

**Q.** For `CCN(Cc1cccnc1)C(=O)c1ccc2c(c1OC)B(O)OC2` [Compound 48, N-ethyl-1-hydroxy-7-methoxy-N-(3-pyridylmethyl)-3H-2,1-benzoxaborole-6-carboxamide], which inhibition of growth at 20 ppm is on record?
**A.** Its inhibition of growth at 20 ppm is at least 80%.

**Q.** How did the inhibition of growth at 20 ppm turn out when `COc1c(C(=O)N(C)c2ncn[nH]2)ccc2c1B(O)OC2` [Compound 50, 1-hydroxy-7-methoxy-N-methyl-N-(1H-1,2,4-triazol-5-yl)-3H-2,1-benzoxaborole-6-carboxamide] was run?
**A.** Its inhibition of growth at 20 ppm is at least 80%.

**Q.** With `COc1n[nH]c(NC(=O)c2ccc3c(c2OC)B(O)OC3)n1` [Compound 51, 1-hydroxy-7-methoxy-N-(3-methoxy-1H-1,2,4-triazol-5-yl)-3H-2,1-benzoxaborole-6-carboxamide] as the molecule, how does the inhibition of growth at 20 ppm read?
**A.** The inhibition of growth at 20 ppm was at least 80%.

**Q.** Which inhibition of growth at 20 ppm does the source give for `COc1c(C(=O)NCCOc2ccccc2)ccc2c1B(O)OC2` [Compound 56, 1-hydroxy-7-methoxy-N-(2-phenoxyethyl)-3H-2,1-benzoxaborole-6-carboxamide] here?
**A.** The inhibition of growth at 20 ppm was at least 80%.

**Q.** Which inhibition of growth at 20 ppm does the source give for `COc1c(C(=O)NCc2ccc(Cl)nc2)ccc2c1B(O)OC2` [Compound 59, N-[(6-chloro-3-pyridyl)methyl]-1-hydroxy-7-methoxy-3H-2,1-benzoxaborole-6-carboxamide] here?
**A.** Its inhibition of growth at 20 ppm is at least 80%.

**Q.** How did the inhibition of growth at 20 ppm turn out when `COc1c(C(=O)NC(C)(C)C)ccc2c1B(O)OC2` [Compound 60, N-tert-butyl-1-hydroxy-7-methoxy-3H-2,1-benzoxaborole-6-carboxamide] was run?
**A.** The inhibition of growth at 20 ppm was at least 80%.

**Q.** Which inhibition of growth at 20 ppm does the source give for `COc1c(C(=O)NCC2CC(F)(F)C2(F)F)ccc2c1B(O)OC2` (centres unmarked) [Compound 62, 1-hydroxy-7-methoxy-N-[(2,2,3,3-tetrafluorocyclobutyl)methyl]-3H-2,1-benzoxaborole-6-carboxamide] here?
**A.** Its inhibition of growth at 20 ppm is at least 80%.

**Q.** Which inhibition of growth at 20 ppm does the source give for `COC(=O)c1cc(NC(=O)c2ccc3c(c2OC)B(O)OC3)cn1C` [Compound 67, methyl 4-[(1-hydroxy-7-methoxy-3H-2,1-benzoxaborole-6-carbonyl)amino]-1-methyl-pyrrole-2-carboxylate] here?
**A.** Its inhibition of growth at 20 ppm is at least 80%.

**Q.** Which inhibition of growth at 20 ppm does the source give for `COc1c(C(=O)NCc2ncc(C(F)(F)F)cc2Cl)ccc2c1B(O)OC2` [Compound 68, N-[[3-chloro-5-(trifluoromethyl)-2-pyridyl]methyl]-1-hydroxy-7-methoxy-3H-2,1-benzoxaborole-6-carboxamide] here?
**A.** Its inhibition of growth at 20 ppm is at least 80%.

**Q.** For `CCC1COC(CNC(=O)c2ccc3c(c2OC)B(O)OC3)O1` (centres unmarked) [Compound 69, N-[(4-ethyl-1,3-dioxolan-2-yl)methyl]-1-hydroxy-7-methoxy-3H-2,1-benzoxaborole-6-carboxamide], which inhibition of growth at 20 ppm is on record?
**A.** Its inhibition of growth at 20 ppm is at least 80%.

**Q.** Which inhibition of growth at 20 ppm does the source give for `COc1c(C(=O)NCc2ccc(C)o2)ccc2c1B(O)OC2` [Compound 70, 1-hydroxy-7-methoxy-N-[(5-methyl-2-furyl)methyl]-3H-2,1-benzoxaborole-6-carboxamide] here?
**A.** Its inhibition of growth at 20 ppm is at least 80%.

**Q.** Which inhibition of growth at 20 ppm does the source give for `COc1c(C(=O)n2nc(N)cc2C)ccc2c1B(O)OC2` [Compound 71, (3-amino-5-methyl-pyrazol-1-yl)-(1-hydroxy-7-methoxy-3H-2,1-benzoxaborol-6-yl)methanone] here?
**A.** Its inhibition of growth at 20 ppm is at least 80%.

**Q.** With `COc1c(C(=O)N2CCCC2CO)ccc2c1B(O)OC2` (centres unmarked) [Compound 72, (1-hydroxy-7-methoxy-3H-2,1-benzoxaborol-6-yl)-[2-(hydroxymethyl)pyrrolidin-1-yl]methanone] as the molecule, how does the inhibition of growth at 20 ppm read?
**A.** Its inhibition of growth at 20 ppm is at least 80%.

**Q.** With `COc1c(C(=O)OCn2cncn2)ccc2c1B(O)OC2` [Compound 73, 1,2,4-triazol-1-ylmethyl 1-hydroxy-7-methoxy-3H-2,1-benzoxaborole-6-carboxylate] as the molecule, how does the inhibition of growth at 20 ppm read?
**A.** The inhibition of growth at 20 ppm was at least 80%.

**Q.** How did the inhibition of growth at 20 ppm turn out when `COc1c(C(=O)OCC(C)(F)F)ccc2c1B(O)OC2` [Compound 74, 2,2-difluoropropyl 1-hydroxy-7-methoxy-3H-2,1-benzoxaborole-6-carboxylate] was run?
**A.** Its inhibition of growth at 20 ppm is at least 80%.

**Q.** How did the inhibition of growth at 20 ppm turn out when `COc1c(C(=O)OCC(C)=O)ccc2c1B(O)OC2` [Compound 76, acetonyl 1-hydroxy-7-methoxy-3H-2,1-benzoxaborole-6-carboxylate] was run?
**A.** The inhibition of growth at 20 ppm was at least 80%.

**Q.** `COc1cc(COC(=O)c2ccc3c(c2OC)B(O)OC3)nc(OC)n1` [Compound 78, (2,6-dimethoxypyrimidin-4-yl)methyl 1-hydroxy-7-methoxy-3H-2,1-benzoxaborole-6-carboxylate] was tested. Which inhibition of growth at 20 ppm did it give?
**A.** The inhibition of growth at 20 ppm was at least 80%.

**Q.** How did the inhibition of growth at 20 ppm turn out when `COc1c(C(=O)OCc2ccncc2)ccc2c1B(O)OC2` [Compound 106, 4-pyridylmethyl 1-hydroxy-7-methoxy-3H-2,1-benzoxaborole-6-carboxylate] was run?
**A.** Its inhibition of growth at 20 ppm is at least 80%.

**Q.** How did the inhibition of growth at 20 ppm turn out when `COC(=O)C[C@H](OC(=O)c1ccc2c(c1OC)B(O)OC2)C(=O)OC` [Compound 108, dimethyl (2S)-2-(1-hydroxy-7-methoxy-3H-2,1-benzoxaborole-6-carbonyl)oxybutanedioate] was run?
**A.** Its inhibition of growth at 20 ppm is at least 80%.

**Q.** How did the inhibition of growth at 20 ppm turn out when `COc1c(C(=O)OCCN(C)C(=O)OC(C)(C)C)ccc2c1B(O)OC2` [Compound 112, 2-[tert-butoxycarbonyl(methyl)amino]ethyl 1-hydroxy-7-methoxy-3H-2,1-benzoxaborole-6-carboxylate] was run?
**A.** The inhibition of growth at 20 ppm was at least 80%.

**Q.** Which inhibition of growth at 20 ppm does the source give for `COc1c(C(=O)OCC2COC(=O)O2)ccc2c1B(O)OC2` (centres unmarked) [Compound 113, (2-oxo-1,3-dioxolan-4-yl)methyl 1-hydroxy-7-methoxy-3H-2,1-benzoxaborole-6-carboxylate] here?
**A.** The inhibition of growth at 20 ppm was at least 80%.

**Q.** With `COc1c(C(=O)OC2COCOC2)ccc2c1B(O)OC2` [Compound 122, 1,3-dioxan-5-yl 1-hydroxy-7-methoxy-3H-2,1-benzoxaborole-6-carboxylate] as the molecule, how does the inhibition of growth at 20 ppm read?
**A.** The inhibition of growth at 20 ppm was at least 80%.
